From patent US6218367A, “Paclitaxel-carbohydrate conjugates: design, synthesis and biological evaluations” (Organomed Corporation, priority 1999, dated 2001)
Where two headings read alike, the source gives them in different places.

Columns and labels:
[1] = test system: OVCAR-3; experiment: NCI in vitro human tumor cell line screen, ovarian cancer; assay type: cell-based
[2] = test system: OVCAR-5; experiment: as above; assay type: cell-based
[3] = test system: OVCAR-8; experiment: as above; assay type: cell-based; conditions: OVCAR-8, ovarian cancer, 48 hours
[4] = test system: SK-OV-3; experiment: as above; assay type: cell-based; conditions: SK-OV-3, ovarian cancer, 48 hours
[5] = test system: MCF-7; experiment: NCI in vitro human tumor cell line screen, breast cancer; assay type: cell-based
[6] = test system: HS578T; experiment: as above; assay type: cell-based; conditions: Hs-578T
Description: (§1) Compounds were tested as described (Monks, A. et al., (1991). J. Nat. Cancer Int., 83, 757-766; Boyd, M. R., and Paull, K. D., (1995) "Some practical considerations and applications of the National Cancer Institute In Vitro Anticancer Drug Discovery Program", Drug Development Res., 34, 91-109 in the NCI in vitro human tumor cell line screen). The compounds were examined in 60 different cell lines. The following definitions are based on the National Cancer Institute in vitro screen protocol (Boyd, M. R., and Paull, K. D., (1995) "Some practical considerations and applications of the National Cancer Institute In Vitro Anticancer Drug Discovery Screen", ibid., 34, 91-109).
(§2) The "50% growth inhibition" parameter (GI50) is the concentration of test drug where: [formula]
(§3) T is the optical density of the test well after 48 hours drug exposure, T0 is the optical density at time zero, and C is the control optical density, PG is the "percent growth". It is a T/C like parameter that can have values from +100 to -100.
(§4) Total Growth Inhibition (TGI) signifies the cytostatic level effect: [formula]
(§5) The GI50, TGI and LC50 values were calculated by interpolation using the tested concentrations that give PG values above and below the response reference values (e.g. 50 for GI50). Dose-response curves are compared for compound 1 and paclitaxel for breast cancer, ovarian cancer, CNS cancer and non-small lung cancer in FIGS. 1-4 respectively.

[7] = test system: MDA-MB-435; experiment: as above; assay type: cell-based; conditions: 48 h, MDA-MB-435, breast cancer, read-out: TGI (total growth inhibition)
Description: as §1, §2, §3, §4, §5

[8] = test system: MDA-N; experiment: as above; assay type: cell-based
Description: as §1, §2, §3, §4, §5

[9] = test system: T-47D; experiment: as above; assay type: cell-based
[10] = test system: A549/ATCC; experiment: NCI in vitro human tumor cell line screen, non small lung cancer; assay type: cell-based; conditions: 48 hours
[11] = test system: EKVX; experiment: as above; assay type: cell-based; conditions: 48 hours
[12] = test system: HOP-62; experiment: as above; assay type: cell-based; conditions: HOP-62, non small lung cancer, 48 hours
[13] = test system: NCI-H226; experiment: as above; assay type: cell-based; conditions: 48 hours
[14] = test system: NCI-H23; experiment: as above; assay type: cell-based
[15] = test system: NCI-H322M; experiment: as above; assay type: cell-based; conditions: 48 hours
[16] = test system: NCI-H522; experiment: as above; assay type: cell-based; conditions: 48 hours
[17] = test system: SF-268; experiment: NCI in vitro human tumor cell line screen, CNS cancer; assay type: cell-based; conditions: for GI50: Homo sapiens
[18] = test system: SF-295; experiment: as above; assay type: cell-based
[19] = test system: SF-539; experiment: as above; assay type: cell-based; conditions: SF-539, CNS cancer, 48 hours
[20] = test system: SNB-19; experiment: as above; assay type: cell-based; conditions: SNB-19, CNS cancer, 48 hours
[21] = test system: SNB-75; experiment: as above; assay type: cell-based; conditions: for GI50: Homo sapiens
Description: as §1, §2, §3, §4, §5

[22] = test system: U251; experiment: as above; assay type: cell-based; conditions: U-251, 48 hours
[23] = test system: COLO205; experiment: NCI in vitro human tumor cell line screen, colon cancer; assay type: cell-based
[24] = test system: HCC-2998; experiment: as above; assay type: cell-based; conditions: HCC-2998, colon cancer, 48 hours
[25] = test system: HCT-116; experiment: as above; assay type: cell-based; conditions: HCT-116, colon cancer, 48 hours
[26] = test system: HCT-15; experiment: as above; assay type: cell-based
[27] = test system: HT-29; experiment: as above; assay type: cell-based
Description: as §1, §2, §3, §4, §5

[28] = test system: SW-620; experiment: as above; assay type: cell-based; conditions: SW-620, colon cancer, 48 hours
[29] = test system: CCRF-CEM; experiment: NCI in vitro human tumor cell line screen, leukemia; assay type: cell-based
[30] = test system: HL-60TB; experiment: as above; assay type: cell-based
[31] = test system: MOLT-2; experiment: as above; assay type: cell-based; conditions: MOLT-2, leukemia, 48 hours
[32] = test system: RPMI-8226; experiment: as above; assay type: cell-based; conditions: RPMI-8226, leukemia, 48 hours
[33] = test system: 786-0; experiment: NCI in vitro human tumor cell line screen, renal cancer; assay type: cell-based
[34] = test system: RXF-393; experiment: as above; assay type: cell-based
[35] = test system: SN12C; experiment: as above; assay type: cell-based
[36] = test system: PC-3; experiment: NCI in vitro human tumor cell line screen, prostate cancer; assay type: cell-based
[37] = test system: DU-145; experiment: as above; assay type: cell-based
[38] = test system: IGROVI; experiment: NCI in vitro human tumor cell line screen, ovarian cancer; assay type: cell-based; conditions: vs paclitaxel
[39] = test system: ADR-RES; experiment: NCI in vitro human tumor cell line screen, breast cancer; assay type: cell-based; conditions: vs paclitaxel
[40] = test system: UACC-62; experiment: NCI in vitro human tumor cell line screen, melanoma; assay type: cell-based; conditions: UACC-62, melanoma, vs paclitaxel
[41] = test system: ovarian cancer cell lines; experiment: NCI screen, ovarian cancer cell lines as a group; assay type: cell-based, human; conditions: for GI50: Homo sapiens, read-out: GI50 values, range
[42] = test system: breast cancer cell lines; experiment: NCI screen, breast cancer cell lines as a group; assay type: cell-based, human; conditions: for GI50: Homo sapiens, 48 h, read-out: GI50 values, range
[43] = test system: CNS cancer; experiment: NCI screen, CNS cancer dose response curves; assay type: cell-based, human; conditions: FIG. 3, vs paclitaxel
[44] = test system: non-small cell lung cancer; experiment: NCI screen, non-small cell lung cancer dose response curves; assay type: cell-based, human; conditions: FIG. 4, vs paclitaxel
[45] = test system: various cancer cell lines; experiment: NCI in vitro human tumor cell line screen, various cancer cell lines; assay type: cell-based; conditions: for IC (TGI): Homo sapiens, 48 h, read-out: TGI values (concentrations), order of magnitude
Description: as §1, §2, §3, §4
The LC50 is the lethal dose concentration, "net cell killing" or cytotoxicity parameter: [formula]
as §5

[46] = Water solubility as equilibrium concentration by HPLC
Description: The water solubility of compound 1 was determined as an equilibrium concentration at room temperature using HPLC measurements.

[47] = 48 h, read-out: TGI (total growth inhibition)

Compound: CC(=O)OC1C(=O)C2(C)C(O)CC3OCC3(OC(C)=O)C2C(OC(=O)c2ccccc2)C2(O)CC(OC(=O)C(OC(=O)CCC(=O)NCCCC(=O)OC3C(O)C(O)OC(CO)C3O)C(NC(=O)c3ccccc3)c3ccccc3)C(C)=C1C2(C)C (stereo not drawn) [chackol, (3-glucose) GABA paclitaxel succinate]
- GI50 ([1]; Homo sapiens, OVCAR-3, ovarian cancer, 48 hours): 0.266 nM
- times more active than paclitaxel (GI50) ([1]; OVCAR-3, vs paclitaxel): 18 times
- GI50 ([2]; Homo sapiens, OVCAR-5, ovarian cancer, 48 hours): 0.156 nM
- times more active than paclitaxel (GI50) ([2]; OVCAR-5, vs paclitaxel): 32 times
- GI50 [3]: 0.437 nM
- GI50 [4]: 0.502 nM
- GI50 ([5]; Homo sapiens, MCF7, MCF-7, breast cancer, 48 hours): 0.256 nM
- times more active than paclitaxel (GI50) ([5]; MCF-7, vs paclitaxel): 15 times
- IC (TGI) [6, 47]: 0.592 nM
- GI50 ([6]; 48 hours): 0.18 nM
- IC (TGI) [7]: 0.215 nM
- IC (TGI) [8, 47]: 0.294 nM
- GI50 ([8]; 48 hours): 0.105 nM
- GI50 ([9]; Homo sapiens, T47D, breast cancer, 48 hours): 0.804 nM
- times more active than paclitaxel (GI50) ([9]; vs paclitaxel): 14 times
- GI50 [10]: 0.575 nM
- GI50 [11]: 1.98 nM
- GI50 [12]: 1.13 nM
- GI50 [13]: 0.419 nM
- GI50 ([14]; Homo sapiens, NCI-H23, non small lung cancer, 48 hours): 0.428 nM
- times more active than paclitaxel (GI50) ([14]; NCI-H23, vs paclitaxel): 107 times
- GI50 [15]: 0.593 nM
- GI50 [16]: 0.184 nM
- GI50 ([17]; SF-268, CNS cancer, 48 hours, read-out: GI50): 0.275 nM
- times more active than paclitaxel (GI50) ([17]; SF-268, vs paclitaxel): 28 times
- GI50 ([18]; Homo sapiens, SF-295, CNS cancer, 48 hours): 1.44 nM
- times more active than paclitaxel (GI50) ([18]; SF-295, vs paclitaxel): 25 times
- GI50 [19]: 0.22 nM
- GI50 [20]: 0.354 nM
- GI50 ([21]; SNB-75, CNS cancer, 48 hours, read-out: GI50): 0.21 nM
- times more active than paclitaxel (TGI) ([21]; SNB-75, CNS cancer, vs paclitaxel): 67 times
- times more active than paclitaxel (GI50) ([21]; SNB-75, vs paclitaxel): 65 times
- GI50 [22]: 0.363 nM
- times more active than paclitaxel (GI50) ([23]; COLO25 (so in the source), vs paclitaxel): 19 times
- GI50 ([23]; Homo sapiens, COLO 205, COLO205, colon cancer, 48 hours): 0.247 nM
- GI50 [24]: 0.152 nM
- GI50 [25]: 0.228 nM
- times more active than paclitaxel (GI50) ([26]; HCT-15, vs paclitaxel): 7 times
- GI50 ([26]; Homo sapiens, HCT-15, colon cancer, 48 hours): 27.9 nM
- times more active than paclitaxel (TGI) ([27]; HT-29, colon cancer, vs paclitaxel): 303 times
- times more active than paclitaxel (GI50) ([27]; HT-29, vs paclitaxel): 40 times
- GI50 ([27]; Homo sapiens, HT-29, colon cancer, 48 hours): 0.127 nM
- GI50 [28]: 0.348 nM
- GI50 ([29]; Homo sapiens, leukemia, 48 hours): 0.313 nM
- times more active than paclitaxel (GI50) ([29]; vs paclitaxel): 8 times
- times more active than paclitaxel (GI50) ([30]; HL-60 (TB), vs paclitaxel): 8 times
- GI50 ([30]; Homo sapiens, HL-60TB, leukemia, 48 hours): 0.249 nM
- GI50 [31]: 0.487 nM
- GI50 [32]: 0.266 nM
- times more active than paclitaxel (GI50) ([33]; 786-0, vs paclitaxel): 11 times
- GI50 ([33]; Homo sapiens, 786-0, renal cancer, 48 hours): 1.33 nM
- GI50 ([34]; Homo sapiens, RXF-393, renal cancer, 48 hours): 0.496 nM
- times more active than paclitaxel (GI50) ([34]; RXF-393, vs paclitaxel): 23 times
- GI50 ([35]; Homo sapiens, renal cancer, 48 hours): 0.481 nM
- times more active than paclitaxel (GI50) ([35]; vs paclitaxel): 16 times
- GI50 ([36]; Homo sapiens, PC-3, prostate cancer, 48 hours): 0.276 nM
- times more active than paclitaxel (GI50) ([36]; PC-3, vs paclitaxel): 10 times
- times more active than paclitaxel (GI50) ([37]; DU-145, vs paclitaxel): 12 times
- GI50 ([37]; Homo sapiens, DU-145, prostate cancer, 48 hours): 0.401 nM
- times more active than paclitaxel (GI50) [38]: 45 times
- times more active than paclitaxel (GI50) [39]: 23 times
- times more active than paclitaxel (GI50) [40]: 1490 times
- GI50 ([41]; ovarian lines OVCAR-3, OVCAR-5 and IGROVI): ~0.1 nM
- dose response curve compared with paclitaxel ([41]; ovarian cancer, FIG. 2, vs paclitaxel): extend one log unit lower than those for paclitaxel
- GI50 ([42]; breast lines MCF-7, ADR-RES and T-47D): 0.1 to 10 nM
- dose response curve compared with paclitaxel ([42]; breast cancer, FIG. 1, vs paclitaxel): extend one log unit lower than those for paclitaxel
- dose response curve compared with paclitaxel [43]: extend one log unit lower than those for paclitaxel
- dose response curve compared with paclitaxel [44]: extend one log unit lower than those for paclitaxel
- IC (TGI) ([45]; on the order of, various cancer cell lines): ~0.1 nM
- dose response curves compared with paclitaxel ([45]; breast, ovarian, CNS, non-small lung cancer, FIGS. 1-4): extend one log unit lower
- growth inhibition (GI50) compared with paclitaxel ([45]; in general, vs paclitaxel): active at a much lower concentration as compared to paclitaxel
- total growth inhibition compared with paclitaxel ([45]; various cancer cell lines, vs paclitaxel): more active than paclitaxel
- solubility [46]: 240 µg/mL

Compound: CC(=O)O[C@H]1C(=O)[C@@]2(C)[C@H]([C@H](OC(=O)c3ccccc3)[C@]3(O)C[C@H](OC(=O)[C@H](O)[C@@H](NC(=O)c4ccccc4)c4ccccc4)C(C)=C1C3(C)C)[C@]1(OC(C)=O)CO[C@@H]1C[C@@H]2O [paclitaxel]
- GI50 ([17]; SF-268, 48 h): 7.61 nM
- GI50 ([21]; SNB-75, 48 h): 13.6 nM
- GI50 ([41]; 48 h): 1 to 10 nM
- GI50 [42]: 10 to 100 nM
- IC (TGI) [45]: 10 to 100 nM
